Legend:
Format in all cases: cell-based
OR7C1 = molecular target: T1, OR7C1 (Homo sapiens, UniProt O76099); test: Luciferase-based CRE gene reporter assay, dose-response on OR7C1; conditions: negative logarithm of the EC50 in Moles; semi-logarithmic dilutions from 1 mM to 316 nM on OR7C1; read-out: -LogEC50 (average n > 3) (converted)
T1 construct: transfected with a plasmid containing the CRE-luciferase and a plasmid containing the olfactory receptor; expressed in transfected cells; host or cells: HEK293T-RTP1A1/RTP2 (HEK293T stably expressing the chaperones RTP1A1 and RTP2)
T1 sequence (O76099 1-320): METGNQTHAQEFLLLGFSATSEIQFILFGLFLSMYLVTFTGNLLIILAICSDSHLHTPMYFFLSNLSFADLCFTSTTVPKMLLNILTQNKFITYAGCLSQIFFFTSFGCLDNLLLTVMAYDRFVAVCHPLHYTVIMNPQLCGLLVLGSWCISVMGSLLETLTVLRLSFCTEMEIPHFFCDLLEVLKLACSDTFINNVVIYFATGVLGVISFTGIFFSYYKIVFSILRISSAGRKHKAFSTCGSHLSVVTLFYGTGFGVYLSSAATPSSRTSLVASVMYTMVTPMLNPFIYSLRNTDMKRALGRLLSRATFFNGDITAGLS
Method: HEK293T-RTP1A1/RTP2 cells were maintained in minimal essential medium (EMEM, Lonza) containing 10% fetal bovine serum (M10). These cells were generated by transfecting HEK293T (Thermofisher Scientific, cat ref: R70007) with an expression vector containing the sequences of the chaperone proteins RTP1A1 and RTP2 and a resistance gene to puromycin, using Lipofectamine 2000. The recombinant cell population, used in these experiments, was selected by adding 10 μg/ml of puromycin into the culture medium and subsequently subcloned (WO 2014/191047 A1).
Potential OR7C1 agonists were diluted at a concentration of 1 mole/liter (M) into an organic solvent such as Dimethyl Sulfoxide (DMSO) or Ethanol to generate stock solutions. […]
For concentration-response analysis, serial dilutions of the tested molecules were prepared from stock solutions in EMEM plated into 96-well plates.
For the dose-response analysis, a Luciferase-based gene reporter assay (Promega, Leiden, the Netherlands) was used. Briefly, cells were platted on poly-D-lysine-coated 96-well plates and transfected with a plasmid containing the CRE-luciferase and a plasmid containing the olfactory receptor. Sixteen hours after transfection, the culture medium was replaced by serum-free EMEM containing the tested compounds at a determined concentration. After four hours of incubation at 37° C., cells were lysed and processed for luminescence measurement. Luminescence emission was recorded. Results were expressed as luciferase activity ([…] (RLU)) or as percentage of the response induced by 10 μM of the adenylate cyclase activator Forskolin. An empty plasmid is used as negative control.
Dose-response analyses using the luciferase-based reporter assay were performed using semi-logarithmic serial dilutions of the compounds, from 1 mM to 316 nM, on OR7C1. 46 compounds were tested in concentration-response analyses. In each experiment, an empty vector (pEFIBRHO) was used as negative control. Values are given as the negative logarithm of the EC50 in Moles.

[1] = test system: Normal Human Epidermal Melanocytes moderately pigmented (NHEMs-MP); test: MTS cytotoxicity test on NHEMs-MP; conditions: 4 days of treatment, 5 concentrations, threshold 80% viability
Method: (§1) This primary culture was cultivated in medium M254 supplemented (LIFE TECHNOLOGIES; ref:M-254-500) with HMGS (human melanocyte growth supplement; LIFE TECHNOLOGIES; ref: S-002-5) and gentamycin (LIFE TECHNOLOGIES; ref:15710-049) and maintained in a humidified incubator at 37° C. with a 5% CO2 atmosphere. For experiments (see below), cells were seeded at a density of 9×10^4 cells/well (100 μL/well) and cultured at 37° C. under a 5% CO2.
NHEMs moderately pigmented (NHEMs-MP) were seeded in 24-wells plates at a density of 9×10^4 cells/well, 72 h before the treatment with the different concentrations of 2 different compounds according to embodiments of the invention. After 2 days of treatment with these compounds, compounds were re-applied for 2 additional days according to the experimental scheme as shown in FIG. 1. Sodium dodecyl sulfate (SDS) at 0.05% was used as cytotoxicity positive control in order to validate the experiment. […]
An MTS assay (3-(4,5-dimethythiazol-2-yl)-5-(3-carboxymethoxyphenyl)-2-(4-sulfophenyl)-2H-tetrazolium) was performed to measure the maximal concentrations the compounds which can be used in the culture medium of NHEMs-MP without affecting cell viability. […] Cell viability was analyzed, and toxicity/viability was expressed in percentage relative to the ethanol treated condition which was fixed at 100%. […]

[2] = test system: Normal Human Epidermal Melanocytes moderately pigmented (NHEMs-MP); test: Melanin content (pigmentation) of NHEMs-MP in culture
Method: as §1
The NHEMs-MP were treated for 4 days, with a medium refresh after 2 days of treatment—Amberketal, Ambermax and with the reference molecule (L-DOPA)—when the culture media are collected and stored at −80° C. as shown in FIG. 2. At the end of the treatments, the culture media were collected a second time, pooled with the media collected at day 2 and centrifuged for 30 minutes (14000 rpm). The pellet obtained after centrifugation and NHEMs-MP treated cells were lysed in 150 μl of a NaOH 1M solution. 5 μl of each cell lysate were used for protein quantification using BCA protein assay. The remaining 145 μl of the lysates were heated at 80° C. during 1 h. The optical density was measured at 490 nm and the melanin content was determined by comparison with a standard curve of synthetic melanin and reported to the quantity of protein present in each cell well tested.
The effects of these 2 compounds, namely Ambermax and Amberketal, on the melanin production were evaluated as described above. Based on MTS results, moderately pigmented (MP) NHEMs were treated with these 2 compounds at one concentration (100 μM for Amberketal and 3.16 μM for Ambermax) for 4 days. In parallel, cell cultures were also treated with Ethanol 0.1%, a concentration corresponding to the test compounds solvent, and with a known modulator of pigmentation (L-DOPA 50 μM). […] At the end of the treatments (D4), cells were lysed, the melanin content was quantified by spectrophotometry and normalized to the amount of proteins. Extracellular melanin was also evaluated by the same methodology after centrifugation of the culture media.

EC50 (OR7C1) [µM]	SMILES	cell toxicity (MTS, viability relative to ethanol treated condition) [1]	increase of melanin present in the media (extracellular) ([2]; 100 μM, 4 days, NHEMs-MP, in comparison with DOPA (50 μM), p<0.01, n=10)	increase of intracellular melanin content ([2]; 100 μM, 4 days, NHEMs-MP, in comparison with DOPA (50 μM), p<0.01, n=12)	melanin content in NHEMs ([2]; 50 μM, 4 days of treatment)
25.1	CC(=O)C1(C)CCC2=C(C1C)C(C)(C)CCC2 (stereo not drawn) [Compound 4, Georgywood]	no significant cell toxicity			
2.51	CC12CCC3C(CCC4C(C)(C)CCCC43C)(CO1)O2 (stereo not drawn) [Compound 17, Amberketal]		+99%	+40%	
	N[C@@H](Cc1ccc(O)c(O)c1)C(=O)O [L-DOPA, 3,4-dihydroxyphenylalanine, reference compound]				enhanced slightly the melanin content

Source: patent US20240058240A1, “COMPOUNDS AS SELF-TANNING SUBSTANCES AND TANNING COMPOSITIONS THEREOF” (CHEMCOM S.A., priority 2020, published 2024)
